The values below come from patent US20100273656A1, “COMPOSITION AND METHOD FOR SELECTIVE HERBICIDE” (priority 2002, published 2010).

Each structure is given as a SMILES string.

One series deals with white clover. Nature of the series: Example 23 Cu-, Mn- or ZnHEDTA with Killex, white clover. The format is in vivo. On the procedure: (§1) Plants were fertilized with an all purpose water-soluble fertilizer mix of 20-20-20 (N-P-K; Plant-Prod®) as needed. All broadleaf weeds were grown individually in a 2¼-inch pot until they were a suitable size for herbicide tests (actual weed size is reported in examples below). Perennial ryegrass was also grown in 2¼-inch pots, however many grass seeds were sown in the pot to simulate a small section of turf. Grass plants were continually trimmed to a height of 4 cm, simulating that of a homeowner's lawn. For field tests, plots ¼ m^2 in size were marked out in areas containing the targeted broadleaf weed species growing in turf grass. Plots were continually mowed to simulate a homeowner's lawn. […] In all of the examples, the amounts of the various herbicide components are identified as a percent on a weight basis.
(§2) Killex® (Scotts Canada, Ltd., Ontario, Canada) is a commonly used selective lawn herbicide and was used as the commercial herbicide for herbicide combinations. The labeled dilution and application rates for Killex® are 6 ml into 1 L of solution (0.6%) applied at 200 ml/m^2.
(§3) All visual plant damage assessments were made using a quantitative rating scale; percent control relative to the untreated check (0=no effect; 100=plant death).
(§4) Materials and Methods: This trial was conducted in the greenhouse. Ten white clover plants and 10 pots of perennial ryegrass were selected for each treatment. Herbicide solutions were prepared using deionized water. The treatments were applied using a hand-trigger sprayer at 200 ml/m^2. All treatments were applied once. Phytotoxicity (%) was assessed 4 and 7 days after treatment (A4 and A7).

For a further series, the system named is perennial ryegrass. Put plainly: Example 23 Cu-, Mn- or ZnHEDTA with Killex, perennial ryegrass. In kind it is in vivo. On the procedure:
as §1, §2, §3, §4

Series [1] relates to dandelions. Put plainly: Example 16 metal salts of EDTA, greenhouse dandelion mortality. The format is in vivo, Taraxacum officinale. To be noted: pH 7. On the procedure: This test investigated various metal chelates. All chelate solutions contained 0.4% metal ions with 10% excess chelator, and were adjusted to pH 7. For the combinations, these 4 solutions were mixed together in a 1:1 ratio. The solutions were sprayed onto greenhouse grown dandelions at a rate of 100 ml/m^2. The test was re-sprayed after 7 days.

Series [2] concerns dandelions. Nature of the series: Example 7 potassium nonanoate with FeHEDTA, greenhouse dandelions. In kind it is in vivo, Taraxacum officinale. On the procedure:
The following non-limiting examples serve to further describe the invention. Unless otherwise specified, all of the iron solutions were made using the same molar concentration of iron ion as chelating agent. All of the outside tests were done on areas of mixed grass and dandelions that were at least 2 months old. For the greenhouse tests, dandelions were grown in a commercial greenhouse mix, using supplemental lighting and heating. Each plant was grown in a 2¼ inch pot to a minimum diameter of 20 cm. All of the solutions were sprayed onto the plants at a rate of 100 ml/m^2. The ferrous sulfate formulations that were used in examples 1, 2, 8 and 9 contained 1% iron (180 mM), 18 mM EDTA, 1% citric acid and 0.5% urea. In all of the examples, the amount of iron is identified in brackets as the percent iron on a weight basis.
All plant damage was assessed using a qualitative rating scale from 0 to 9.
This test compared the damaged caused by combinations of fatty acid and FeHEDTA. FeHEDTA was used at a concentration to 35.8 mM. The treatment with 0.1% Fe contained twice the molar amount of chelating agent as iron. The treatment with 0.2% iron contained the same molar amount of chelating agent as iron Potassium nonanoate (KC9) was used at 0.84%. The plants were re-sprayed 8 days after the first spray.

[3] abbreviates: day 10 (re-sprayed after 7 days).

In the case of `O=C([O-])CN(CCN(CCO)CC(=O)O)CC(=O)[O-].[Zn+2]` [ZnHEDTA 0.4% Zn], the “Phytotoxicity (%) against white clover” value in the series with white clover (A4) was determined as 4%; in the series with white clover (A7), 3%. Further, the “Phytotoxicity (%) on perennial ryegrass” value with perennial ryegrass (A4) is given as 1%; in the series with perennial ryegrass (A7), 0%.
On to `O=C([O-])CN(CCO)CCN(CC(=O)[O-])CC(=O)[O-].[Cu+2]` [CuHEDTA 0.4% Cu], for which the “Phytotoxicity (%) against white clover” value in the series on white clover (A4) worked out at 32%; in the series with white clover (A7), 62%. Further, the “Phytotoxicity (%) on perennial ryegrass” value with perennial ryegrass (A4) and in the series with perennial ryegrass (A7) was 3% each time.
As to `O=C([O-])CN(CCO)CCN(CC(=O)[O-])CC(=O)[O-].[Mn+2]` [MnHEDTA 0.4% Mn], the figures for the “Phytotoxicity (%) against white clover” value in the series with white clover (A4) and in the series with white clover (A7) were 9% and 12%, respectively. Besides, the “Phytotoxicity (%) on perennial ryegrass” value in the series on perennial ryegrass (A4) and in the series with perennial ryegrass (A7) was 1% in each case.
With `O=C([O-])CN(CCN(CC(=O)O)CC(=O)O)CC(=O)[O-].[Zn+2]` [Zn EDTA (0.4% Zn)], the “Dead Dandelion (#/20)” value with dandelions [1] (day 7) and in the series on dandelions [1] (setting [3]) was 0 #/20 each time.
As for `O=C([O-])CN(CCN(CC(=O)[O-])CC(=O)O)CC(=O)[O-].[Al+3]` [Al EDTA (0.4% Al)], the “Dead Dandelion (#/20)” value in the series with dandelions [1] (day 7) and with dandelions [1] (setting [3]) was 0 #/20 each time.
As to `O=C([O-])CN(CCN(CC(=O)O)CC(=O)O)CC(=O)[O-].[Cu+2]` [Cu EDTA (0.4% Cu)], the “Dead Dandelion (#/20)” value is 0 #/20 in the series with dandelions [1] (day 7) and 4 #/20 in the series with dandelions [1] (setting [3]).
For `[Cl][Fe]([Cl])[Cl]` [FeCl3 (0.4% Fe), ferric chloride], in that order: 0 #/20 and 0 #/20.
In the case of `CCCCCCCCC(=O)[O-].[K+]` [KC9, Potassium nonanoate], the “Dead Plants (#/10)” value in the series on dandelions [2] (8 + 5 days after spraying) was 0 #/10. The “Plant Damage (0 to 9)” value in the series on dandelions [2] (8 + 5 days after spraying (re-sprayed after 8 days)) is 0.6 0 to 9; in the series on dandelions [2] (7 days after spraying), 0.0 0 to 9.
